The test concerns P388 leukemia ip, CD2F1 mice, survival T/C. Description: NCI In Vivo Anticancer Drug Screen. Data for tumor model P388 Leukemia (intraperitoneal) in CD2F1 (CDF1) mice. Conditions: endpoint: median survival time, higher = longer survival. In a few lines: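 Mice carrying the transplanted tumor received test compound or vehicle. Survival was recorded in each group, and the value is the treated-group measurement divided by that of the vehicle-treated control group.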

Where [1] appears, read: dose: 100.0 mg/kg/injection, schedule: Q01DX009 (ip), vehicle: saline with Tween-80.
[2] abbreviates: dose: 60.0 mg/kg/injection, schedule: Q01DX005 (ip), vehicle: saline with Tween-80.
[3] abbreviates: dose: 120.0 mg/kg/injection, schedule: Q01DX005 (ip), vehicle: saline with Tween-80.
The mark [4] stands for this setting: dose: 240.0 mg/kg/injection, schedule: Q01DX005 (ip), vehicle: saline with Tween-80.
[5] abbreviates: dose: 50.0 mg/kg/injection, schedule: Q01DX001 (ip), vehicle: Klucel (hydroxypropylcellulose) (HPC).
[6] abbreviates: dose: 100.0 mg/kg/injection, schedule: Q01DX001 (ip), vehicle: Klucel (hydroxypropylcellulose) (HPC).
Where [7] appears, read: dose: 200.0 mg/kg/injection, schedule: Q01DX001 (ip), vehicle: Klucel (hydroxypropylcellulose) (HPC).
Where [8] appears, read: dose: 6.25 mg/kg/injection, schedule: Q01DX005 (ip), vehicle: Klucel (hydroxypropylcellulose) (HPC).
Setting [9] is: dose: 12.5 mg/kg/injection, schedule: Q01DX005 (ip), vehicle: Klucel (hydroxypropylcellulose) (HPC).
The mark [10] stands for this setting: dose: 25.0 mg/kg/injection, schedule: Q01DX005 (ip), vehicle: Klucel (hydroxypropylcellulose) (HPC).
[11] abbreviates: dose: 25.0 mg/kg/injection, schedule: Q01DX009 (ip), vehicle: saline with Tween-80.
[12] abbreviates: dose: 50.0 mg/kg/injection, schedule: Q01DX005 (ip), vehicle: saline with Tween-80.
The mark [13] stands for this setting: dose: 100.0 mg/kg/injection, schedule: Q01DX005 (ip), vehicle: saline with Tween-80.
[14] abbreviates: dose: 200.0 mg/kg/injection, schedule: Q01DX005 (ip), vehicle: saline with Tween-80.
The mark [15] stands for this setting: dose: 50.0 mg/kg/injection, schedule: Q01DX005 (ip), vehicle: saline.
The mark [16] stands for this setting: dose: 100.0 mg/kg/injection, schedule: Q01DX005 (ip), vehicle: saline.
The mark [17] stands for this setting: dose: 50.0 mg/kg/injection, schedule: Q01DX009 (ip), vehicle: Klucel (hydroxypropylcellulose) (HPC).
[18] abbreviates: dose: 100.0 mg/kg/injection, schedule: Q01DX009 (ip), vehicle: Klucel (hydroxypropylcellulose) (HPC).

Several values for one entry are separate records, joined by “and”; a condition that tells them apart may be missing. Equal entries are not always repeated. Toxic doses and inconclusive results are not listed.

On to `Cc1cc(NCCCNCCCNc2cc(C)nc3cc([N+](=O)[O-])ccc23)c2ccc([N+](=O)[O-])cc2n1`, for which the T/C by setting is: (dose: 12.5 mg/kg/injection, schedule: Q01DX009 (ip), vehicle: other) 150 % of control; (dose: 25.0 mg/kg/injection, schedule: Q01DX009 (ip), vehicle: other) 121 % of control.

Take `O=C(O)CCC(=O)Nc1ccccc1C(=O)O`: the T/C was 110 % of control under setting [1]; 100 % of control (dose: 200.0 mg/kg/injection, schedule: Q01DX009 (ip), vehicle: saline with Tween-80); 110 % of control (dose: 400.0 mg/kg/injection, schedule: Q01DX009 (ip), vehicle: saline with Tween-80).

Take `N#Cc1c(-c2ccccc2Cl)c(-c2ccccc2Cl)nn(CCO)c1=O`: the T/C (dose: 25.0 mg/kg/injection, schedule: Q04DX002 (ip), vehicle: distilled water + Tween-80) was 99 % of control; the T/C (dose: 50.0 mg/kg/injection, schedule: Q04DX002 (ip), vehicle: distilled water + Tween-80) is 100 % of control; the T/C (dose: 100.0 mg/kg/injection, schedule: Q04DX002 (ip), vehicle: distilled water + Tween-80) is 91 % of control; the T/C (dose: 200.0 mg/kg/injection, schedule: Q04DX002 (ip), vehicle: distilled water + Tween-80) was 101 % of control.

`Cc1sc2ccccc2c(=O)c1CO`: the T/C under setting [2] is 97 % of control, the T/C under setting [3] was 97 % of control and the T/C under setting [4] is 97 % of control.

Consider `O=C(CCCl)Nc1cccc(/C=C/C(=O)c2ccccc2NC(=O)CCCl)c1`, for which the T/C reads like this: under setting [2], 99 % of control; under setting [3], 99 % of control; under setting [4], 93 % of control.

Turning to `C(=C\C1N=C1c1ccccc1)/c1ccc2ccccc2c1` (stereo not drawn), the T/C by setting is: (dose: 50.0 mg/kg/injection, schedule: Q04DX002 (ip), vehicle: suspension in saline) 99 % of control; (dose: 100.0 mg/kg/injection, schedule: Q04DX002 (ip), vehicle: suspension in saline) 97 % of control; (dose: 200.0 mg/kg/injection, schedule: Q04DX002 (ip), vehicle: suspension in saline) 99 % of control.

As for `O=C(/C=C\c1cc2[nH]c1c(-c1ccccc1)c1nc(c(-c3ccccc3)c3ccc([nH]3)c(-c3ccccc3)c3nc(c2-c2ccccc2)C=C3)C=C1)NCCCn1ccnc1`, the T/C runs as follows: under setting [5], 100 % of control; under setting [6], 94 % of control; under setting [7], 93 % of control; (dose: 400.0 mg/kg/injection, schedule: Q01DX001 (ip), vehicle: Klucel (hydroxypropylcellulose) (HPC)) 96 % of control.

As to `CN(c1ccc(C2=NCCN2)cc1)S(=O)(=O)c1ccc(Oc2ccc(S(=O)(=O)N(C)c3ccc(C4=NCCN4)cc3)cc2)cc1`, the T/C is, setting by setting: under setting [8], 100 % of control; under setting [9], 100 % of control; under setting [10], 109 % of control.

On to `O=S(Nc1ccccc1)Nc1ccccc1`, for which the T/C is 100 % of control under setting [11]; 100 % of control (dose: 50.0 mg/kg/injection, schedule: Q01DX009 (ip), vehicle: saline with Tween-80); 90 % of control under setting [1].

With `Cc1c2c(n(C)c1C)C(=O)C=CC2=O`, the T/C was 100 % of control under setting [5] and 113 % of control under setting [6].

As to `O/N=C\c1ccccc1P(c1ccccc1)c1ccccc1/C=N\O`, the T/C reads like this: under setting [12], 93 % of control; under setting [13], 92 % of control; under setting [14], 90 % of control.

As to `COc1cc2c(c(C(C)(C)C)c1)OC1(O)C2=CC(=O)C=C1C(C)(C)C` (stereo not drawn), the T/C is, setting by setting: under setting [8], 120 % of control; under setting [9], 120 % of control; under setting [10], 114 % of control; (dose: 50.0 mg/kg/injection, schedule: Q01DX005 (ip), vehicle: Klucel (hydroxypropylcellulose) (HPC)) 110 % of control; (dose: 100.0 mg/kg/injection, schedule: Q01DX005 (ip), vehicle: Klucel (hydroxypropylcellulose) (HPC)) 107 % of control.

As to `CCOC(=O)CC/C(=C/c1cccc2cc(OC)ccc12)[N+](=O)[O-]`, the T/C runs as follows: under setting [5], 100 % of control; under setting [6], 101 % of control; under setting [7], 104 % of control.

Turning to `N/C(=N/O)NO`, the T/C is, setting by setting: under setting [15], 112 % of control and 113 % of control; under setting [16], 122 % of control.

On to `Cc1ncc(C(O)c2ccc(Cl)cc2)n1Cc1ccccc1` (stereo not drawn), for which the T/C by setting is: under setting [2], 96 % of control; under setting [3], 104 % of control; under setting [4], 99 % of control.

As for `O=S(=O)(c1ccc(Cl)c(Cl)c1)N(c1cccc(C(F)(F)F)c1)S(=O)(=O)c1ccc(Cl)c(Cl)c1`, the T/C reads like this: (dose: 6.25 mg/kg/injection, schedule: Q01DX009 (ip), vehicle: saline with Tween-80) 100 % of control; (dose: 12.5 mg/kg/injection, schedule: Q01DX009 (ip), vehicle: saline with Tween-80) 94 % of control; under setting [11], 97 % of control.

As to `CCS(=O)(=O)c1ccc(N2C(N)=NC(N)=NC2(C)C)cc1`, the T/C is 103 % of control (dose: 6.25 mg/kg/injection, schedule: Q01DX005 (ip), vehicle: saline with Tween-80); 100 % of control (dose: 12.5 mg/kg/injection, schedule: Q01DX005 (ip), vehicle: saline with Tween-80); 103 % of control (dose: 25.0 mg/kg/injection, schedule: Q01DX005 (ip), vehicle: saline with Tween-80).

With `CCON1C(=O)C(C)c2ccccc21` (stereo not drawn), the T/C was 98 % of control under setting [2], 102 % of control under setting [3] and 102 % of control under setting [4].

Regarding `C#CC(OS(=O)(=O)C(F)(F)F)=C(C)C`, the T/C under setting [12] is 99 % of control, the T/C under setting [13] was 100 % of control and the T/C under setting [14] is 100 % of control.

As for `N#CC(C#N)=C(O)/C(=C/c1ccc(Cl)c(Cl)c1)NC(=O)c1ccccc1`, the T/C was 88 % of control under setting [15]; 88 % of control under setting [16]; 104 % of control (dose: 200.0 mg/kg/injection, schedule: Q01DX005 (ip), vehicle: saline).

For `CNC(=O)N(C)c1cc(N(C)C)nc(OC)n1`, the T/C is 100 % of control (dose: 4.5 mg/kg/injection, schedule: Q01DX005 (ip), vehicle: saline + alcohol); 90 % of control (dose: 9.0 mg/kg/injection, schedule: Q01DX005 (ip), vehicle: saline + alcohol); 98 % of control (dose: 18.0 mg/kg/injection, schedule: Q01DX005 (ip), vehicle: saline + alcohol); 98 % of control (dose: 36.0 mg/kg/injection, schedule: Q01DX005 (ip), vehicle: saline + alcohol); 101 % of control (dose: 72.0 mg/kg/injection, schedule: Q01DX005 (ip), vehicle: saline + alcohol).

For `Cn1c(=O)c2nsnc2n(C)c1=O`, the T/C is 110 % of control (dose: 50.0 mg/kg/injection, schedule: Q04DX002 (ip), vehicle: Klucel (hydroxypropylcellulose) (HPC)); 100 % of control and 110 % of control (dose: 100.0 mg/kg/injection, schedule: Q04DX002 (ip), vehicle: Klucel (hydroxypropylcellulose) (HPC)); 107 % of control (dose: 200.0 mg/kg/injection, schedule: Q04DX002 (ip), vehicle: Klucel (hydroxypropylcellulose) (HPC)).

Consider `CSc1cnc(N)s1`, for which the T/C by setting is: (dose: 12.5 mg/kg/injection, schedule: Q01DX009 (ip), vehicle: Klucel (hydroxypropylcellulose) (HPC)) 108 % of control; (dose: 25.0 mg/kg/injection, schedule: Q01DX009 (ip), vehicle: Klucel (hydroxypropylcellulose) (HPC)) 115 % of control; under setting [17], 100 % of control; under setting [18], 104 % of control.

For the compound `Cc1ccc(S(=O)(=O)OCCn2nc(C)c3c(C)cc(=O)oc32)cc1`, the T/C by setting is: under setting [17], 103 % of control; under setting [18], 107 % of control; (dose: 200.0 mg/kg/injection, schedule: Q01DX009 (ip), vehicle: Klucel (hydroxypropylcellulose) (HPC)) 100 % of control.

Take `COc1cc(C(c2cc3c(cc2O)OCO3)N2CCOCC2)ccc1O` (stereo not drawn): the T/C was 116 % of control under setting [2] and 106 % of control under setting [3].
